Measurements published in patent publication US20130065227A1, “METHODS OF INCREASING MACROPINOCYTOSIS IN CANCER CELLS” (priority 2010, published 2013).

Experiments:
CHO = experiment: Uptake of AS1411 by macropinocytosis (MP); assay type: cell-based; details: Non-cancer, hamster ovary
Text: (§1) It has recently been discovered that AS1411 can stimulate macropinocytosis (MP) in cancer cells and this finding was verified by several different methods and in multiple cancer cell lines (Table 1).

BEAS2B = experiment: Uptake of AS1411 by macropinocytosis (MP); assay type: cell-based; details: Non-cancer, lung epithelial
Text: as §1

RCC4 = experiment: Uptake of AS1411 by macropinocytosis (MP); assay type: cell-based; details: Cancer, renal cell
Text: as §1

A549 = experiment: Uptake of AS1411 by macropinocytosis (MP); assay type: cell-based; details: Cancer, non-small cell lung
Text: as §1

RWPE1 = experiment: Uptake of AS1411 by macropinocytosis (MP); assay type: cell-based; details: Non-cancer, prostate epithelial
Text: as §1

DU145 cells = experiment: Uptake of fluorescently labeled duplex siRNA after AS1411 pre-treatment; assay type: cell-based; details: 10 μM, 48 h
Text: FIG. 18 is a graph showing the uptake of siRNA in the presence of AS1411.
Furthermore, due to the unique properties of MPsomes, delivery by MP leads to increased functional activity. Thus, treatment with AS1411, followed by administration of an anticancer siRNA, for example, leads to a synergistic increase in anticancer effects without harming normal cells. Another strategy to potentiate the effects of AS1411 is to combine it with agents that promote MP and activation of Rac. This leads to increased macropinocytic uptake of AS1411 and/or enhanced methuosis.

DU145 = experiment: Stimulation of macropinocytosis (dextran uptake); assay type: cell-based
Procedure: (Panel A) DU145 cells were treated with 10 μM tAS1411 or 10 μM tCRO or no oligonucleotide in complete DMEM medium at 37° C. for the time indicated. After treatment, cell medium was changed for fresh complete medium containing 0.2 mg/ml dextran-10K labeled with Alexa Fluor 488, and cells were incubated for 30 min at 37° C. After incubation, cells were harvested and analyzed by flow cytometry to determine dextran uptake. (Panel B) The same experiment was performed using Hs27 cells. (Panel C) DU145 cells were treated with 10 μM tAS1411 or 10 μM tCRO or no oligonucleotide in complete DMEM medium at 37° C. for 48 h. After treatment, cell medium was changed for fresh complete medium containing 0.2 mg/ml dextran-10K tagged with Alexa Fluor 488, and cells were incubated for 30 min at 37° C. Then, cells were washed with cold PBS, added PBS containing 5 μg/ml PI and incubated on ice for 5 min. After washing with cold PBS, cells were fixed and the distribution of macropinocytic marker was visualized by confocal microscopy. The nucleus was stained with DAPI (blue). Scale bars, 10 μm. All experiments have been repeated at least three times. Data are mean of three independent samples; bars, SE; *(p<0.05).
FIG. 6 are graphs showing that nucleolin regulates AS1411-induced stimulation of macropinocytosis. DU145 cells were untreated (no transfection) or transfected, without siRNA (mock), or with 30 nM of one of three different nucleolin siRNAs (NCL1, NCL2, NCL3) or a control siRNA (scramble). 48 h after transfection, cells were incubated with 10 μM tAS1411, 10 μM tCRO, or no oligonucleotide in complete DMEM medium at 37° C. for 24 h. (Panel A) After treatment, cell medium was changed for fresh complete medium containing 0.2 mg/ml dextran-10K labeled with Alexa Fluor 488 (green) and incubated for 30 min at 37° C. (Panel B) After treatment, some cells were washed, fresh complete medium containing 10 μM FL-AS1411 added and incubated for 2 h at 37° C. After incubation, cells were harvested and analyzed by flow cytometry. Mean fluorescence was normalized to “not transfected” control (Panel A) or to no pre-treatment control (Panel B). All experiments have been repeated at least three times. Data are the mean of three independent samples; bars, SE; *(p<0.05).
FIG. 11 is a graph showing a comparison between AS1411 and tAS1411 in the ability to stimulate macropinocytosis. DU145 cells were plated 18 hr before treatment with different concentrations (0, 5, 10, or 15 μM) of AS1411, tAS1411 or tCRO in complete DMEM medium at 37° C. for 48 h. After treatment, cell medium was changed for fresh complete medium containing 0.2 mg/ml dextran-10K labeled with Alexa Fluor 488, and cells were incubated for 30 min at 37° C. After incubation, cells were incubated on ice with […] PI in PBS, harvested, fixed and immediately analyzed by flow cytometry.
To analyze uptake of the oligodeoxynucleotides or dextran-10K (macropinocytic marker) by flow cytometry, 2×10^5 cells in fresh supplemented culture medium (2.5 ml) were plated into 6-well plates for 18 h. After complete adhesion, the cells were incubated with 5′-FAM tagged oligodeoxynucleotides or Alexa Fluor 488 tagged dextran-10K and incubated as indicated in the Description of the Drawings. Cells were washed once with ice-cold PBS, incubated with 1 μg/ml 7-amino-actinomycin D (7-AAD) for 5 min on ice or 1 μg/ml propidium iodide (PI), and washed twice with ice-cold PBS. Cells were then treated with 0.01% trypsin/0.5 mM EDTA (300 μl) for 3 min prior addition 3 ml supplemented culture medium. The cells were then centrifuged and resuspended in 0.5 ml of 1% paraformaldehyde for analysis by flow cytometry using a FACScalibur cytometer (BD Biosciences, Mountain View, Calif.).
AS1411 causes a change in cancer cell morphology that is characterized by vacuolization, irregular nuclei, and swollen cells (Xu et al., 2001, J. Biol. Chem., 276:43221-30). […]

Hs27 = experiment: Cell response to AS1411; assay type: cell-based, human; details: Non-cancer, skin fibroblasts
Text: as §1

MCF10A = experiment: Cell response to AS1411; assay type: cell-based, human; details: Non-cancer, breast epithelial
Text: as §1

Question: Which “Update by MP?” value (CHO) does the source give for “5′-d(GGTGGTGGTGGTTGTGGTGGTGGTGG) [AS1411]” here?
Answer: No

Question: What about the “Update by MP?” value (BEAS2B) of the same substance?
Answer: Low

Question: And the “Update by MP?” value (RCC4)?
Answer: Yes

Question: What about the “Update by MP?” value (A549) of the same substance?
Answer: Yes

Question: And the “Update by MP?” value (RWPE1)?
Answer: No

Question: And the “siRNA delivery after pre-treatment” value (DU145 cells)?
Answer: substantial increase in siRNA delivery

Question: What about the “stimulation of macropinocytosis compared with tAS1411” value (DU145; 0, 5, 10, or 15 μM for 48 h) of the same substance?
Answer: same response as tAS1411

Question: What about the “dextran uptake after treatment for shorter times” value (DU145; 1 h, 2 h, and 4 h) of the same substance?
Answer: No changes in dextran uptake

Question: And the “Stimulate MP?” value (DU145; DU145, Cancer, prostate)?
Answer: Yes

Question: And the “Cells respond?” value (Hs27)?
Answer: No

Question: And the “Cells respond?” value (MCF10A)?
Answer: No
